Where two headings read alike, the source gives them in different places.
How the values were obtained:
[1] = target: T1, human dihydroorotate dehydrogenase (HsDHODH) (Homo sapiens, UniProt Q02127); test: Inhibition of recombinant human DHODH enzyme activity; type: biochemical; conditions: for IC50: recombinant human DHODH
T1 construct: made in house

DLD-1 cells = test: Cytotoxicity assay (Cell Counting Kit-8 / WST-8) on DLD-1 cells; type: cell-based, human; conditions: Homo sapiens
Protocol: (§1) For hypoxia and nutrient-deprived culture conditions, cells were incubated under 1% oxygen in glucose and glutamine-free DMEM (Gibco) without FBS.
(§2) DLD-1 or HDF cells were seeded at 2.5 × 10^4 cells/well on a 96-well plate with normal medium, and cultured overnight under normal culture condition. The cells were washed with PBS and the medium was replaced to either normal medium or glucose and glutamine-free DMEM without FBS. Test compounds or DMSO as a control were added to the wells. The cells in normal medium were cultured under normal culture conditions, while cells in nutrient-deprived medium were cultured under hypoxia condition. After 24 or 48 h incubation, the cells were washed with PBS, 100 μl of fresh normal medium, and 10 μl of Cell Counting Kit-8 solution (Donjindo, Japan) was added to each well. After 3 h incubation under normal culture condition, the absorbance was measured at 450 nm using SpectraMax M2e-TUY microplate reader (Molecular Devices). Cell viability of test wells was calculated based on absorbance of control wells containing DMSO according to manufacturer’s protocol.

HDF cells = test: Cytotoxicity assay (Cell Counting Kit-8 / WST-8) on HDF cells; type: cell-based; conditions: Homo sapiens
Protocol: as §1, §2

Complexes I–III = test: NADH-cytochrome c reductase (complexes I–III) activity, bovine mitochondria; type: biochemical
Protocol: (§3) Recombinant human DHODH was purified, crystallized, and assayed as previously described ([Inaoka et al., 2016]) without modification. Bovine mitochondrial fractions were prepared as previously described ([Kita et al., 1988]) and NADH dehydrogenase (complex I), succinate:quinone reductase (complex II), quinol oxidase (complexes III–IV), NADH-cytochrome c reductase (complexes I–III), and succinate-cytochrome c (complexes II–III) activities were assayed following an established method ([Takamiya et al., 1986]; [Miyadera et al., 2001]; [Matsumoto et al., 2008]; [Kido et al., 2010]; [Nihashi et al., 2017]).

Complex II–III = test: Succinate-cytochrome c reductase (complexes II–III) activity, bovine mitochondria; type: biochemical
Protocol: as §3

Complex I = test: NADH dehydrogenase (complex I) activity, bovine mitochondria; type: biochemical; conditions: at 5 μM
Protocol: as §3

Complex II = target: T2, Complex II (Bos taurus, UniProt P35720+Q3T189+Q95123); test: Succinate:quinone reductase (complex II) activity, bovine mitochondria; type: biochemical
T2 construct: from tissue; host or cells: bovine mitochondrial fraction / sub-mitochondrial particles
T2 sequence (P31039 45-665 partner limits assumed): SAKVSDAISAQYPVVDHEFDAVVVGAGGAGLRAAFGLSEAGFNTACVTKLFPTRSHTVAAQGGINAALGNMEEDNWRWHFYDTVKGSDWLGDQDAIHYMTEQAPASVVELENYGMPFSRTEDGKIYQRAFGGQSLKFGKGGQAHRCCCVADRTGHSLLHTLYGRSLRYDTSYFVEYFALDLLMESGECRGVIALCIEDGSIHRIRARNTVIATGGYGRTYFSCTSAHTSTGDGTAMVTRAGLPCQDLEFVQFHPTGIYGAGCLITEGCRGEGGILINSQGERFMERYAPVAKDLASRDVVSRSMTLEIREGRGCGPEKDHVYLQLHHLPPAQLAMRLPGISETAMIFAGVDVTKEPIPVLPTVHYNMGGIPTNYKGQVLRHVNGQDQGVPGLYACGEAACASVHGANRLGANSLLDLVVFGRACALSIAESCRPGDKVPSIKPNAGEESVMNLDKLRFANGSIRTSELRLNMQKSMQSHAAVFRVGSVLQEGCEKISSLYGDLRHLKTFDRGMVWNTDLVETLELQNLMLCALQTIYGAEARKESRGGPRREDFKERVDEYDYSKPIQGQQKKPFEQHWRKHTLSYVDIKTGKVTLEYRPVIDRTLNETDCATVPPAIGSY
T2 sequence (Q3T189 29-280): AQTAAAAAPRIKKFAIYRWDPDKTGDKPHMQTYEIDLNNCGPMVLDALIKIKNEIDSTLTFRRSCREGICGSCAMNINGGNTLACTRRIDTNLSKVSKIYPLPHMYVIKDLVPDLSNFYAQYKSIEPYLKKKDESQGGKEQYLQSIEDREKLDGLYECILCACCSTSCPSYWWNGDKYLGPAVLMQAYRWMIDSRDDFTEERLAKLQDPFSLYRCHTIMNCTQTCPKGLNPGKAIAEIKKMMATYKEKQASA
T2 sequence (P35720 30-169): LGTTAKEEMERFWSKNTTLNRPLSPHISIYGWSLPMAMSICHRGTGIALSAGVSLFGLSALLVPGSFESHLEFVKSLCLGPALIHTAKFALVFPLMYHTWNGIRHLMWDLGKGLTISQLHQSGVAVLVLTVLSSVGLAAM
T2 sequence (Q95123 56-158): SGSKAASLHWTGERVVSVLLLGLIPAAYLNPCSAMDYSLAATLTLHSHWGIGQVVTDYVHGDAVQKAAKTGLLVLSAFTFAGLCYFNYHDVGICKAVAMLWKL

Complex III = target: T3, Complex III (Bos taurus, UniProt P00157); test: Quinol oxidase (complex III) activity, bovine mitochondria; type: biochemical; conditions: ubiquinol oxidase activity
T3 construct: from tissue; host or cells: bovine mitochondrial fraction / sub-mitochondrial particles

HBC-4 = test: 39-cancer cell panel assay: HBC-4; type: cell-based; conditions: Homo sapiens, HBC4, Br
BSY-1 = test: 39-cancer cell panel assay: BSY-1; type: cell-based; conditions: Homo sapiens, Br
HBC-5 = test: 39-cancer cell panel assay: HBC-5; type: cell-based; conditions: Homo sapiens, HBC5, Br
MCF-7 = test: 39-cancer cell panel assay: MCF-7; type: cell-based; conditions: Homo sapiens, MCF7, Br
MDA-MB-231 = test: 39-cancer cell panel assay: MDA-MB-231; type: cell-based; conditions: Homo sapiens, Br
U251 = test: 39-cancer cell panel assay: U251; type: cell-based; conditions: Homo sapiens, U-251, CNS
SF-268 = test: 39-cancer cell panel assay: SF-268; type: cell-based; conditions: Homo sapiens, CNS
SF-295 = test: 39-cancer cell panel assay: SF-295; type: cell-based; conditions: Homo sapiens, CNS
SF-539 = test: 39-cancer cell panel assay: SF-539; type: cell-based; conditions: Homo sapiens, CNS
SNB-75 = test: 39-cancer cell panel assay: SNB-75; type: cell-based; conditions: Homo sapiens, CNS
SNB-78 = test: 39-cancer cell panel assay: SNB-78; type: cell-based; conditions: Homo sapiens, CNS
HCC2998 = test: 39-cancer cell panel assay: HCC2998; type: cell-based; conditions: Homo sapiens, HCC 2998, Co
KM-12 = test: 39-cancer cell panel assay: KM-12; type: cell-based, human; conditions: Co
HT-29 = test: 39-cancer cell panel assay: HT-29; type: cell-based; conditions: Homo sapiens, Co
HCT-15 = test: 39-cancer cell panel assay: HCT-15; type: cell-based; conditions: Homo sapiens, Co
HCT-116 = test: 39-cancer cell panel assay: HCT-116; type: cell-based; conditions: Homo sapiens, Co
NCI-H23 = test: 39-cancer cell panel assay: NCI-H23; type: cell-based; conditions: Homo sapiens, Lu
NCI-H226 = test: 39-cancer cell panel assay: NCI-H226; type: cell-based; conditions: Homo sapiens, Lu
NCI-H522 = test: 39-cancer cell panel assay: NCI-H522; type: cell-based; conditions: Homo sapiens, Lu
NCI-H460 = test: 39-cancer cell panel assay: NCI-H460; type: cell-based; conditions: Homo sapiens, Lu
A549 = test: 39-cancer cell panel assay: A549; type: cell-based; conditions: Homo sapiens, Lu
DMS273 = test: 39-cancer cell panel assay: DMS273; type: cell-based; conditions: Homo sapiens, DMS-273, Lu
DMS114 = test: 39-cancer cell panel assay: DMS114; type: cell-based; conditions: Homo sapiens, DMS-114, Lu
LOX-IMVI = test: 39-cancer cell panel assay: LOX-IMVI; type: cell-based; conditions: Homo sapiens, Me
OVCAR-3 = test: 39-cancer cell panel assay: OVCAR-3; type: cell-based; conditions: Homo sapiens, Ov
OVCAR-4 = test: 39-cancer cell panel assay: OVCAR-4; type: cell-based; conditions: Homo sapiens, Ov
OVCAR-5 = test: 39-cancer cell panel assay: OVCAR-5; type: cell-based; conditions: Homo sapiens, Ov
OVCAR-8 = test: 39-cancer cell panel assay: OVCAR-8; type: cell-based; conditions: Homo sapiens, Ov
SK-OV-3 = test: 39-cancer cell panel assay: SK-OV-3; type: cell-based; conditions: Homo sapiens
RXF-631L = test: 39-cancer cell panel assay: RXF-631L; type: cell-based; conditions: Homo sapiens, Re
ACHN = test: 39-cancer cell panel assay: ACHN; type: cell-based; conditions: Homo sapiens, Re
St-4 = test: 39-cancer cell panel assay: St-4; type: cell-based; conditions: Homo sapiens
MKN1 = test: 39-cancer cell panel assay: MKN1; type: cell-based; conditions: Homo sapiens, MKN-1, St
MKN7 = test: 39-cancer cell panel assay: MKN7; type: cell-based; conditions: Homo sapiens, MKN-7, St
MKN28 = test: 39-cancer cell panel assay: MKN28; type: cell-based; conditions: Homo sapiens, MKN-28, St
MKN45 = test: 39-cancer cell panel assay: MKN45; type: cell-based; conditions: Homo sapiens, MKN-45, St
MKN74 = test: 39-cancer cell panel assay: MKN74; type: cell-based; conditions: Homo sapiens, MKN-74, St
DU-145 = test: 39-cancer cell panel assay: DU-145; type: cell-based; conditions: Homo sapiens, Pro
PC-3 = test: 39-cancer cell panel assay: PC-3; type: cell-based; conditions: Homo sapiens, Pro
mammalian complex III = system: mammalian complex III; set-up: method as in Berry et al., 2010; conditions: ref Berry et al., 2010; read-out: IC50 against mammalian complex III; cited from earlier work
[2] = purified enzyme fixed at 10 nM, read-out: IC50 (nM), inhibition of human DHODH
[3] = read-out: IC50 (μM) DLD-1 (24 h) Hypoxia nutrient (-), DLD-1, 24 h, hypoxia (1% oxygen), nutrient (-)
[4] = read-out: IC50 (μM) DLD-1 (24 h) Normoxia nutrient (+), DLD-1, 24 h, normoxia, nutrient (+)
[5] = DLD-1, 48 h, hypoxia (1% oxygen), nutrient (-), read-out: IC50 (μM) DLD-1 (48 h) Hypoxia nutrient (-)
[6] = DLD-1, 48 h, normoxia, nutrient (+), read-out: IC50 (μM) DLD-1 (48 h) Normoxia nutrient (+)
[7] = read-out: IC50 (μM) HDF (24 h) Hypoxia nutrient (-), hypoxia (1% oxygen), nutrient (-)
[8] = read-out: IC50 (μM) HDF (24 h) Normoxia nutrient (+), normoxia, nutrient (+)

T1 sequence (Q02127 whole entry): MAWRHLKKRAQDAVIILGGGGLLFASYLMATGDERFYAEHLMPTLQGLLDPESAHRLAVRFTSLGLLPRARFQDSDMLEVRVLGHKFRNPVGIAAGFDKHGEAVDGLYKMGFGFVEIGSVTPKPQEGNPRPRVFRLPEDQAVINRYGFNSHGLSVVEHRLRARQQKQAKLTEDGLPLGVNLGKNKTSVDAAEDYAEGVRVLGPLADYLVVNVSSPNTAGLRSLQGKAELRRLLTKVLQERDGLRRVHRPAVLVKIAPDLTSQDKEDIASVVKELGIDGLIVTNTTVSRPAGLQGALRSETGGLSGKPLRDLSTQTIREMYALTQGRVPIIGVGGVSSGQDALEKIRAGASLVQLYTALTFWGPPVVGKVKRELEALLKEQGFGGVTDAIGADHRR

CC(=O)OC(C)/C(C)=C/CC/C(C)=C/Cc1c(O)c(Cl)c(C)c(C=O)c1O (stereo not drawn) [Compound 7]
IC50 [1, 2]: 6.4 ± 0.2 nM
IC50 (DLD-1 cells; [3]): 2 ± 0.19 µM
IC50 (DLD-1 cells; [4]): > 100 µM
IC50 (DLD-1 cells; [5]): 0.95 ± 0.059 µM
IC50 (DLD-1 cells; [6]): > 100 µM
IC50 (HDF cells; [7]): 3.4 ± 0.36 µM
IC50 (HDF cells; [8]): > 100 µM
IC50 (Complexes I–III): 0.46 ± 0.01 µM
IC50 (Complex II–III): 2.3 ± 0.16 µM
Inhibition (%) Complex I (Complex I): 15 ± 2.3%
inhibition at 5 µM (Complex II): 3.2 ± 6.7%
inhibition at 5 µM (Complex III): > 80%
GI50 (HBC-4): 5 µM
GI50 (BSY-1): 20 µM
GI50 (HBC-5): 25 µM
GI50 (MCF-7): 4.9 µM
GI50 (MDA-MB-231): 11 µM
GI50 (U251): 1.5 µM
GI50 (SF-268): 5 µM
GI50 (SF-295): 8 µM
GI50 (SF-539): 0.27 µM
GI50 (SNB-75): 22 µM
GI50 (SNB-78): 21 µM
GI50 (HCC2998): 13 µM
GI50 (μM) KM-12 (KM-12): 5.7 µM
GI50 (HT-29): 3.2 µM
GI50 (HCT-15): 0.58 µM
GI50 (HCT-116): 1.5 µM
GI50 (NCI-H23): 15 µM
GI50 (NCI-H226): 11 µM
GI50 (NCI-H522): 4.9 µM
GI50 (NCI-H460): 0.94 µM
GI50 (A549): 3.3 µM
GI50 (DMS273): 0.91 µM
GI50 (DMS114): 14 µM
GI50 (LOX-IMVI): 1.5 µM
GI50 (OVCAR-3): 13 µM
GI50 (OVCAR-4): 27 µM
GI50 (OVCAR-5): 18 µM
GI50 (OVCAR-8): 8.8 µM
GI50 (SK-OV-3): 12 µM
GI50 (RXF-631L): 7.5 µM
GI50 (ACHN): 9.9 µM
GI50 (St-4): 13 µM
GI50 (MKN1): 16 µM
GI50 (MKN7): 16 µM
GI50 (MKN28): 11 µM
GI50 (MKN45): 20 µM
GI50 (MKN74): 11 µM
GI50 (DU-145): 14 µM
GI50 (PC-3): 15 µM

COC(=O)/C(C)=C/CC/C(C)=C/Cc1c(O)c(Cl)c(C)c(C=O)c1O [Compound 9]
IC50 [1, 2]: ~5 nM
IC50 (DLD-1 cells; [3]): 1.6 ± 0.42 µM
IC50 (DLD-1 cells; [4]): > 100 µM
IC50 (DLD-1 cells; [5]): 0.67 ± 0.066 µM
IC50 (DLD-1 cells; [6]): > 100 µM
IC50 (HDF cells; [7]): 3.1 ± 0.19 µM
IC50 (HDF cells; [8]): > 100 µM
IC50 (Complexes I–III): 1 ± 0.02 µM
IC50 (Complex II–III): 5.7 ± 0.37 µM
Inhibition (%) Complex I (Complex I): 7.6 ± 4.2%
inhibition at 5 µM (Complex II): 5.3 ± 4.1%
inhibition at 5 µM (Complex III): > 80%
GI50 (HBC-4): 5.6 µM
GI50 (BSY-1): 27 µM
GI50 (HBC-5): 28 µM
GI50 (MCF-7): 7.3 µM
GI50 (MDA-MB-231): 14 µM
GI50 (U251): 0.97 µM
GI50 (SF-268): 8.1 µM
GI50 (SF-295): 11 µM
GI50 (SF-539): 0.54 µM
GI50 (SNB-75): 9.7 µM
GI50 (SNB-78): 8.8 µM
GI50 (HCC2998): 17 µM
GI50 (μM) KM-12 (KM-12): 6.4 µM
GI50 (HT-29): 6.5 µM
GI50 (HCT-15): 0.83 µM
GI50 (HCT-116): 2.5 µM
GI50 (NCI-H23): 7.8 µM
GI50 (NCI-H226): 13 µM
GI50 (NCI-H522): 5.3 µM
GI50 (NCI-H460): 4.3 µM
GI50 (A549): 4.7 µM
GI50 (DMS273): 3 µM
GI50 (DMS114): 15 µM
GI50 (LOX-IMVI): 2.1 µM
GI50 (OVCAR-3): 5.3 µM
GI50 (OVCAR-4): 11 µM
GI50 (OVCAR-5): 12 µM
GI50 (OVCAR-8): 9.1 µM
GI50 (SK-OV-3): 11 µM
GI50 (RXF-631L): 8.4 µM
GI50 (ACHN): 9.9 µM
GI50 (St-4): 7.5 µM
GI50 (MKN1): 14 µM
GI50 (MKN7): 13 µM
GI50 (MKN28): 12 µM
GI50 (MKN45): 14 µM
GI50 (MKN74): 14 µM
GI50 (DU-145): 10 µM
GI50 (PC-3): 22 µM

CC(/C=C/[C@@]1(C)[C@H](C)CCC(=O)[C@@H]1C)=C\Cc1c(O)c(Cl)c(C)c(C=O)c1O [Compound 10, Ascochlorin]
inhibition at 1 µM ([1]; at 1,000 nM, read-out: Inhibition of HsDHODH activity (value in parentheses)): 33%
IC50 ([1]; Table 6, read-out: IC50 (μM) HsDHODH): 2300 ± 1900 nM
IC50 [1, 2]: > 1000 nM
IC50 (Complexes I–III): 0.0033 ± 0.0001 µM
IC50 (Complex II–III): 0.0069 ± 0.0002 µM
Inhibition (%) Complex I (Complex I): 6.8 ± 4.1%
inhibition at 5 µM (Complex II): 3.6 ± 8.5%
inhibition at 5 µM (Complex III): 94 ± 2.4%
IC50 (mammalian complex III): 0.013 µM

Reference: publication PMC6131557, “Selective Cytotoxicity of Dihydroorotate Dehydrogenase Inhibitors to Human Cancer Cells Under Hypoxia and Nutrient-Deprived Conditions” (Frontiers in Pharmacology, 2018)
